Experimental data reported in patent US6087119A, “Method for determining the catalytic activity of factor IXa” (Roche Diagnostics GmbH, priority 1996, dated 2000).
Values joined by “and” are separate entries in the source; they are usually repeats but may differ in a detail not shown here. Equal entries are not always repeated. Where two headings read alike, the source gives them in different places.

Legend:
native FIXa (human) = native FIXa (human) (Homo sapiens, UniProt P00740); conditions: pH 7.4; for V/V0: MeSO2-D-HHT-Gly-Arg-pNA 1.02 mmol/l, 0.14 μmol/l native FIXa
Sequence of native FIXa (human) (P00740 227-461 limits assumed): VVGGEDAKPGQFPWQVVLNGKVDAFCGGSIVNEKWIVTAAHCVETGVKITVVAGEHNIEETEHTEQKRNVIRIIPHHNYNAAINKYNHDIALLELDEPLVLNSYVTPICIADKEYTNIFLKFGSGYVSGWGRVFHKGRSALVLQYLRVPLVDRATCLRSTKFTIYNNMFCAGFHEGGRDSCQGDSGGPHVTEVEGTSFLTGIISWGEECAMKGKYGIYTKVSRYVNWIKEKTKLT
Sequence of native FIXa (human) (P00740 47-191 partner limits assumed): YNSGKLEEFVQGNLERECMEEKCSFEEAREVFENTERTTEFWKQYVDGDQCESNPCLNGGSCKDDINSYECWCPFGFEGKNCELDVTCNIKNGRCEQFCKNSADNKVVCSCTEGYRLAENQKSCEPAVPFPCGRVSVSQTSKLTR
Procedure: The FIXa test was carried out with recombinantly produced native human FIXa as a sample and the peptide substrate MeSO2 -D-HHT-Gly-Arg-pNA (Pefachrom tPA, Pentapharm Ltd., Basel, Switzerland) or other chromogenic/fluorogenic substrates of the R-D-Xxx-Gly-Arg-pNA type (EP-B 0 034 122) in Tris-HCl buffer and the substances to be tested (alcohol, solvents and inhibitors). The reaction was started by adding FIXa.
The test mixture was incubated at room temperature (25° C.) in a microtitre plate and the change in absorbance (ΔA/min) was measured at 405 nm using an ELISA reader. The activity and the kinetic constants were determined from the linear initial slope according to the Michaelis-Menten equation.
(§1) 1.02 mmol/l MeSO2 -D-HHT-Gly-Arg-pNA
0.14 μmol/l native FIXa (human)
(§2) 0-50% ethanol or ethylene glycol
FIXa Test Mixture (Concentration in the Test)

rFIXa (human) [1] = biological target: T1, rFIXa (human) (Homo sapiens, UniProt P00740); test: Influence of alcohols and organic solvents on the activity of rFIXa, chromogenic peptide substrates; type: biochemical; design: coding for the FIX protease domain from amino acid position 181 to 415; Met (ATG start codon) (N); made in house; conditions: for V/V0: pH 7.4
Procedure: The reaction was started by adding FIXa.
MeSO2 -D-HHT-Gly-Arg-pNA→MeSO2 -D-HHT-Gly-Arg+pNA measurement signal: pNA
0.48 μmol/l rFIXa (human)
0-50% (alcohol or organic solvent)
The ratio V/V0 was calculated to illustrate the stimulation of the catalytic activity of rFIXa.
V0, reaction rate without additives
V, reaction rate in the presence of additives
Test Mixture Chromogenic (Concentration in the Test)
Target sequence in this assay (P00740 227-461 limits assumed): as the sequence (P00740 227-461 limits assumed) above
Target sequence in this assay (P00740 131-226 partner limits assumed): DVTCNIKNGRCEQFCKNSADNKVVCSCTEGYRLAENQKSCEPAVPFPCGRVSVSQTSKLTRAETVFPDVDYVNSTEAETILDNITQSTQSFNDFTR

[2] = biological target: plasma kallikrein (human) (Homo sapiens, UniProt P03952); conditions: 10-20% ethanol
Sequence of plasma kallikrein (human) (P03952 391-638 limits assumed): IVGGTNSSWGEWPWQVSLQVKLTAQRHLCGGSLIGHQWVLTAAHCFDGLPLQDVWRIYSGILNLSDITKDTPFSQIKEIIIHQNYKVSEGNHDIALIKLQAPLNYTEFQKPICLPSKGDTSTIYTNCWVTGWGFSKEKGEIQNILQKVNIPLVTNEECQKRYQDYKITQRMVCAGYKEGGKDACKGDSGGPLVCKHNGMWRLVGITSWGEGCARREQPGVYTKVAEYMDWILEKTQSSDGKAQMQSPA
Sequence of plasma kallikrein (human) (P03952 20-390 partner limits assumed): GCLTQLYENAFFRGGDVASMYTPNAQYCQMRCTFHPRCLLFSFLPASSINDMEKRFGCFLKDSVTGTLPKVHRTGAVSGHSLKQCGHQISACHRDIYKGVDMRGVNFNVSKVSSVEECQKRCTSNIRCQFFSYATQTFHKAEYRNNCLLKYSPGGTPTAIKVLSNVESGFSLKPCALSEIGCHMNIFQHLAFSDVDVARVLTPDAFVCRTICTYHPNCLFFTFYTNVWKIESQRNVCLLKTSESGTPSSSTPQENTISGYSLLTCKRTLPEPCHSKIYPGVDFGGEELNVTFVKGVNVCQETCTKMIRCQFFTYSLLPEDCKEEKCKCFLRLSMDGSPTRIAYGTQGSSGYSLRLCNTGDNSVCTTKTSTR
Source text: Plasma Kallikrein Test Mixture (Concentration in the Test)
(§3) 42 mmol/l Tris-HCl, pH 7.4
as §1
0.0176 U/ml plasma kallikrein (human)
as §2

rFIXa (human) [3] = biological target: T1, rFIXa (human); conditions: fluorogenic MeSO2-D-CHA-Gly-Arg-AMC 0.51 mmol/l, 0.08 μmol/l rFIXa, pH 7.4
Source text: The stimulation of human rFIXa by ethanol and ethylene glycol was examined using the peptide substrates MeSO2 -D-HHT-Gly-Arg-pNA (Pefachrom tPA, Pentapharm Ltd., Basel, Switzerland), MOC-D-Nle-Gly-Arg-pNA (Chromozym X, Boehringer Mannheim GmbH, Mannheim, Germany, Cat.No. 789763), MeSO2 -D-CHG-Gly-Arg-pNA (Pentapharm Ltd., Basel, Switzerland), MeSO2 -D-CHA-Gly-Arg-pNA (Pentapharm Ltd., Basel, Switzerland) and MeSO2 -D-CHA-Gly-Arg-AMC (Pentapharm Ltd., Basel, Switzerland).
Test Mixture Fluorogenic (Concentration in the Test)
0.51 mmol/l MeSO2 -D-CHA-Gly-Arg-AMC
0.08 μmol/l rFIXa (human)
Target sequence in this assay (P00740 227-461): as the sequence (P00740 227-461 limits assumed) above
Target sequence in this assay (P00740 131-226): as the sequence (P00740 131-226 partner limits assumed) above

FXIa (human) = FXIa (human) (Homo sapiens, UniProt P03951); conditions: FXIa 0.0012 μmol/l, MeSO2-D-HHT-Gly-Arg-pNA 1.02 mmol/l, pH 7.4
Sequence of FXIa (human) (P03951 388-625 limits assumed): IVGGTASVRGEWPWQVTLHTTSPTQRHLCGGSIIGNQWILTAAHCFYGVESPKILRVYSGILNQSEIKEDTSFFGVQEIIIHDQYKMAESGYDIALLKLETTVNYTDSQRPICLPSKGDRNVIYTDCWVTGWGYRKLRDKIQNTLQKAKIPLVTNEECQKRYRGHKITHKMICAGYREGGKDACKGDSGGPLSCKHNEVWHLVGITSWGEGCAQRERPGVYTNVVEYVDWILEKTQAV
Sequence of FXIa (human) (P03951 19-387 partner limits assumed): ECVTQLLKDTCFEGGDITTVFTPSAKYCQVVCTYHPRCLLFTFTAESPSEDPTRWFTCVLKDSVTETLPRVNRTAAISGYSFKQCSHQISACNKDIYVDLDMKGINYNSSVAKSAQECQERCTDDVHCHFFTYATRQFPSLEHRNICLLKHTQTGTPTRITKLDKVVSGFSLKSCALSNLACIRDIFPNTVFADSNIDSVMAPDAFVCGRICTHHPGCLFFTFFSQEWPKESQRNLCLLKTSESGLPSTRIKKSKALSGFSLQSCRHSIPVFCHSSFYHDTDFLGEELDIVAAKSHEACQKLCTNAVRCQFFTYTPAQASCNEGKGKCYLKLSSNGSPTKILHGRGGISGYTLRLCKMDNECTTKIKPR
Source text: FXIa Test Mixture (Concentration in the Test)
as §3, §1
0.0012 μmol/l FXIa (human)
as §2

FXa (bovine) = FXa (bovine) (Bos taurus, UniProt P00743); conditions: FXa 0.088 μmol/l, MeSO2-D-HHT-Gly-Arg-pNA 1.02 mmol/l, pH 7.4
Sequence of FXa (bovine) (P00743 234-492 limits assumed): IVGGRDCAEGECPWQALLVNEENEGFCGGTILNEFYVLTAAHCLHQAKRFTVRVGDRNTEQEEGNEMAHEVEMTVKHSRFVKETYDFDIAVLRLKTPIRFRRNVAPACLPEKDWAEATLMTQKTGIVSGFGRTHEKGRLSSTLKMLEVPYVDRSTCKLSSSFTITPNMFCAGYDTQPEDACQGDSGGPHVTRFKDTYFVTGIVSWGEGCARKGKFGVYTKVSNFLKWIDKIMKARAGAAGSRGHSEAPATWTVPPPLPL
Sequence of FXa (bovine) (P00743 41-180 partner limits assumed): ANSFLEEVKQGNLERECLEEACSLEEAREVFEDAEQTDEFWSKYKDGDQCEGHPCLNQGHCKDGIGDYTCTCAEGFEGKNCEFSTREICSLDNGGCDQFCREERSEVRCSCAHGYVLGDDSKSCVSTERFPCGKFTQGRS
Source text: FXa Test Mixture (concentration in the Test)
as §3, §1
0.088 μmol/l FXa (bovine)
as §2

thrombin (bovine) = thrombin (bovine) (Bos taurus, UniProt P00735); conditions: thrombin 0.045 μmol/l, MeSO2-D-HHT-Gly-Arg-pNA 1.02 mmol/l, pH 7.4
Source text: Thrombin Test Mixture (Concentration in the Test)
as §3, §1
0.045 μmol/l thrombin (bovine)
as §2

FXIIa (human) = FXIIa (human) (Homo sapiens, UniProt P00748); conditions: FXIIa 0.0045 U/ml, MeSO2-D-HHT-Gly-Arg-pNA 1.02 mmol/l, pH 7.4
Sequence of FXIIa (human) (P00748 373-615 limits assumed, other chains not shown): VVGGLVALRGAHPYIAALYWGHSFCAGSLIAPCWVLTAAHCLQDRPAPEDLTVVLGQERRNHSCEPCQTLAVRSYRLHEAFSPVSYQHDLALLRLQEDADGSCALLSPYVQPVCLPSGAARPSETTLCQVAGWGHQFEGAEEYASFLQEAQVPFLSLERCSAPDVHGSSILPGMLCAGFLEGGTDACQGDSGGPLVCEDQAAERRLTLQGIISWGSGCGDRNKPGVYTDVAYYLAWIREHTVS
Source text: FXIIa Test Mixture (Concentration in the Test)
as §3, §1
0.0045 U/ml FXIIa (human)
as §2

CCO [Ethanol]
activation among plasma kallikrein, FXIIa, FXIa, FIXa, FXa and thrombin (in words) (native FIXa (human); 0-50% alcohol, MeSO2-D-HHT-Gly-Arg-pNA): only FIXa is activated | V/V0 (native FIXa (human); 8% additive): 3.40 | V/V0 (native FIXa (human); 16% additive): 5.46 | V/V0 (native FIXa (human); 25% additive): 5.96 | V/V0 (native FIXa (human); 33% additive): 4.82 | V/V0 (native FIXa (human); 41% additive): 1.69 | V/V0 (native FIXa (human); 50% additive): 1.17 | V/V0 (rFIXa (human) [1]; 8% additive, MOC-D-Nle-Gly-Arg-pNA 0.82 mmol/l, 0.48 μmol/l rFIXa): 3.63 | V/V0 (rFIXa (human) [1]; 8% additive, MeSO2-D-CHA-Gly-Arg-pNA 1.02 mmol/l, 0.48 μmol/l rFIXa): 3.30 | V/V0 (rFIXa (human) [1]; 8% additive, MeSO2-D-CHG-Gly-Arg-pNA 1.02 mmol/l, […] rFIXa): 3.33 | V/V0 (rFIXa (human) [1]; 8% additive, MeSO2-D-HHT-Gly-Arg-pNA 1.02 mmol/l, 0.48 μmol/l rFIXa): 2.99 | V/V0 (rFIXa (human) [1]; 16% additive, MOC-D-Nle-Gly-Arg-pNA 0.82 mmol/l, 0.48 μmol/l rFIXa): 7.28 | V/V0 (rFIXa (human) [1]; 16% additive, MeSO2-D-CHA-Gly-Arg-pNA 1.02 mmol/l, 0.48 μmol/l rFIXa): 5.40 | V/V0 (rFIXa (human) [1]; 16% additive, MeSO2-D-CHG-Gly-Arg-pNA 1.02 mmol/l, […] rFIXa): 6.02 | V/V0 (rFIXa (human) [1]; 16% additive, MeSO2-D-HHT-Gly-Arg-pNA 1.02 mmol/l, 0.48 μmol/l rFIXa): 5.52 | V/V0 (rFIXa (human) [1]; 25% additive, MOC-D-Nle-Gly-Arg-pNA 0.82 mmol/l, 0.48 μmol/l rFIXa): 9.95 | V/V0 (rFIXa (human) [1]; 25% additive, MeSO2-D-CHA-Gly-Arg-pNA 1.02 mmol/l, 0.48 μmol/l rFIXa): 5.38 | V/V0 (rFIXa (human) [1]; 25% additive, MeSO2-D-CHG-Gly-Arg-pNA 1.02 mmol/l, […] rFIXa): 6.16 | V/V0 (rFIXa (human) [1]; 25% additive, MeSO2-D-HHT-Gly-Arg-pNA 1.02 mmol/l, 0.48 μmol/l rFIXa): 5.57 | V/V0 (rFIXa (human) [1]; 33% additive, MOC-D-Nle-Gly-Arg-pNA 0.82 mmol/l, 0.48 μmol/l rFIXa): 7.51 | V/V0 (rFIXa (human) [1]; 33% additive, MeSO2-D-CHA-Gly-Arg-pNA 1.02 mmol/l, 0.48 μmol/l rFIXa): 4.30 | V/V0 (rFIXa (human) [1]; 33% additive, MeSO2-D-CHG-Gly-Arg-pNA 1.02 mmol/l, […] rFIXa): 4.50 | V/V0 (rFIXa (human) [1]; 33% additive, MeSO2-D-HHT-Gly-Arg-pNA 1.02 mmol/l, 0.48 μmol/l rFIXa): 3.35 | V/V0 (rFIXa (human) [1]; 41% additive, MOC-D-Nle-Gly-Arg-pNA 0.82 mmol/l, 0.48 μmol/l rFIXa): 3.15 | V/V0 (rFIXa (human) [1]; 50% additive, MeSO2-D-CHA-Gly-Arg-pNA 1.02 mmol/l, 0.48 μmol/l rFIXa): 0.89 | V/V0 (rFIXa (human) [1]; 50% additive, MeSO2-D-CHG-Gly-Arg-pNA 1.02 mmol/l, […] rFIXa): 0.87 | V/V0 (rFIXa (human) [1]; 50% additive, MeSO2-D-HHT-Gly-Arg-pNA 1.02 mmol/l, 0.48 μmol/l rFIXa): 0.606 | V/V0 (rFIXa (human) [1]; 50% additive, MeSO2-D-HHT-Gly-Arg-pNA 1.02 mmol/l, 0.48 μmol/l rFIXa, listed as ethanol): 0.61 and 0.60 | stimulation of the activity of rFIXa (rFIXa (human) [1]; concentration range of 15-40%): 5-15 fold | activation of plasma kallikrein (in words) [2]: slight activation | V/V0 (rFIXa (human) [3]; 8% additive): 2.09 | V/V0 (rFIXa (human) [3]; 16% additive): 2.50 | V/V0 (rFIXa (human) [3]; 33% additive): 1.01 | V/V0 (rFIXa (human) [3]; 41% additive): 0.70 | V/V0 (rFIXa (human) [3]; 50% additive): 0.58 | V/V0 (FXIa (human); 8% alcohol): 1.08 | V/V0 (FXIa (human); 16% alcohol): 0.845 | V/V0 (FXIa (human); 25% alcohol): 0.657 | V/V0 (FXIa (human); 33% alcohol): 0.469 | V/V0 (FXIa (human); 41% alcohol): 0.353 | V/V0 (FXIa (human); 50% alcohol): 0.258 | V/V0 (FXa (bovine); 8% alcohol): 0.899 | V/V0 (FXa (bovine); 16% alcohol): 0.752 | V/V0 (FXa (bovine); 25% alcohol): 0.510 | V/V0 (FXa (bovine); 41% alcohol): 0.203 | V/V0 (FXa (bovine); 50% alcohol): 0.086 | V/V0 (thrombin (bovine); 8% alcohol): 0.846 | V/V0 (thrombin (bovine); 16% alcohol): 0.685 | V/V0 (thrombin (bovine); 25% alcohol): 0.507 | V/V0 (thrombin (bovine); 33% alcohol): 0.343 | V/V0 (thrombin (bovine); 41% alcohol): 0.184 | V/V0 (thrombin (bovine); 50% alcohol): 0.087 | V/V0 (FXIIa (human); 8% alcohol): 0.904 | V/V0 (FXIIa (human); 16% alcohol): 0.579 | V/V0 (FXIIa (human); 25% alcohol): 0.187 | V/V0 (FXIIa (human); 33% alcohol): 0.051 | V/V0 (FXIIa (human); 41% alcohol): 0.009 | V/V0 (FXIIa (human); 50% alcohol): 0
